Test results as given in patent publication US10617693B2, “Methods of treating and/or preventing actinic keratosis” (Athenex, Inc., priority 2017, dated 2020).

Experiments:
[1] = system: subjects with AK on the dorsal forearm; conditions: human, in vivo
Method: A Phase 1, single-center, safety, tolerability and pharmacokinetic study of KX-01 was performed on subjects with AK on the dorsal forearm. This was an open-label, uncontrolled, nonrandomized, sequential group clinical trial conducted at a single investigational center in the United States. The primary objectives of the study were to assess the safety, tolerability and pharmacokinetics of KX-01 in subjects with AK. The secondary objective was to evaluate the activity of KX-01 administered topically to the dorsal forearm in subjects with AK.
KX-01 was administered topically on treatment days. All subjects were monitored for safety and tolerability that included LSRs, AEs, vital signs, clinical laboratory tests, ECGs, and physical examinations at baseline and at pre-defined time points during treatment and follow-up on days 1, 2, 3, 4, 5, 8, 10, 17, 31 and 45.
LSRs (erythema, flaking/scaling, crusting, swelling, vesiculation/pustulation, erosion/ulceration) were assessed by the investigator or trained designee using a 4-point scale according to the protocol. The subject's assessment of the symptoms (stinging/burning, pruritus) associated with irritation of the treatment area was evaluated on a 4-point scale (0=none, 1=mild, 2=moderate, 3=severe). Subjects were queried for spontaneously reported AEs at each study visit before assessment of LSRs. LSRs and AEs were reported separately. All LSRs were to be followed to resolution or stabilization.

[2] = Plasma pharmacokinetics after topical administration, LC-MS/MS; format: in vivo, human
Method: KX-01 was tested in adult subjects with actinic keratosis of the dorsal forearm (Example 1) and actinic keratosis on the face or scalp (Examples 2a and 2b). In Example 1, the plasma pharmacokinetics (PK) of KX-01 following topical administration was evaluated by collection of plasma on days 1 and 3 of the 3-day regimens and on days 1 and 5 of the 5-day regimens (Table 12). In Examples 2a and 2b, plasma samples were collected on days 1 and 5 of Cohort 1 (Table 13). Plasma samples at similar time points were collected on days 1 and 3 of Cohort 2. KX-01 was measured in human plasma using a validated LC-MS/MS assay with a lower limit of quantification (LLOQ) of 0.1 ng/mL.

[3] = system: AK lesions on the dorsal forearm; experiment: Phase 1 study KX01-AK-01-US: AK lesion counts and clearance; format: in vivo, human
Method: KX-01 was administered topically on treatment days. […] Standardized photography of the treatment area was performed.

[4] = system: AK lesions on the face or scalp; experiment: Phase 2a study KX01-AK-002: AK lesion counts and clearance at day 57, 0.5 mg KX-01 on 25 cm^2; format: in vivo, human; conditions: for Subjects with 100% clearance of AK lesions on day 57 / Subjects with at least 75% reduction of AK lesions on day 57 / AK lesion count, median: Cohort 1 (5-day), interim
Text: An ongoing Phase 2a, open-label, multicenter, activity and safety study of KX-01 administered topically in subjects with AK on the face or scalp is described herein. […] Secondary objectives are to assess the activity of KX-01 administered topically during Days 1-57 based on reduction of AK lesion counts from baseline, assess the safety and tolerability and pharmacokinetics, and contrast the dose regimens (5-day treatment with 3-day treatment) in terms of activity and safety in subjects with AK on the face or scalp. This uncontrolled, nonrandomized trial is being conducted at 16 investigational sites in the United States. Enrollment is sequential for 2 cohorts of approximately 80 subjects each. Enrollment is closed for Cohort 1 and ongoing for Cohort 2. The two treatment cohorts are summarized below: • Cohort 1: 0.5 mg KX-01 administered topically to a contiguous treatment area of 25 cm^2 with 4-8 clinically typical AK lesions for 5 consecutive days • Cohort 2: 0.5 mg KX-01 administered topically to a contiguous treatment area of 25 cm^2 with 4-8 clinically typical AK lesions for 3 consecutive days
0.5 mg KX-01 is administered topically to an area of 25 cm^2 on the face or scalp by site staff on treatment days. […] AK lesion counts are recorded at baseline, days 8, 15, 29, and 57. […] Standardized photography of treatment area is performed at baseline, day 8 and day 57. Plasma samples are being collected at preplanned time points on days 1 and 5 for Cohort 1, and on days 1 and 3 for Cohort 2.
The Phase 2a trial described in Example 2a was completed with 84 eligible subjects enrolled in each of two cohorts: one cohort was subjected to the treatment for 5 consecutive days, and the other cohort was subjected to the treatment for 3 consecutive days. The results are described below and in FIG. 5.

O=C(Cc1ccc(-c2ccc(OCCN3CCOCC3)cc2)cn1)NCc1ccccc1 [KX-01]
Serious adverse event (SAE) or death [1]: no serious adverse event (SAE) or death | Plasma concentration, back-up sample ([2]; Day 5, 0.5 hours post-dose, back-up of the 23 ng/mL sample): BLQ | Plasma concentration, aberrant primary sample ([2]; Day 5, 0.5 hours post-dose, likely cross contamination): 23 ng/mL | Plasma concentration, back-up sample ([2]; Day 5, 1 hour post-dose, back-up of the 44 ng/mL sample): 0.351 ng/mL | Plasma concentration, aberrant primary sample ([2]; Day 5, 1 hour post-dose, likely cross contamination): 44 ng/mL | Plasma samples above the limit of quantification ([2]; KX01-AK-002, after 1 day of treatment, of 336 samples): 15 | Measurable plasma concentrations ([2]; KX01-AK-002, all except three aberrant samples): below 0.7 ng/mL | Subjects with measurable plasma concentrations at 4 hours post-dose on Day 5 ([2]; KX01-AK-002 Cohort 1): 42 out of 84 | Subjects with quantifiable concentrations prior to the dose on Day 5 ([2]; KX01-AK-002 Cohort 1): 8 of 84 | Plasma concentration, back-up sample ([2]; back-up of the third aberrant sample): 30 ng/mL | Plasma concentrations below the level of quantification (BLQ) ([2]; both studies): 75% | concentration at 5 days ([2]; human, plasma, up to 5 consecutive days of topical treatment, read-out: Systemic exposure (plasma concentration)): < 1 ng/mL | Apparent plasma concentration, aberrant sample ([2]; third aberrant sample, likely cross contamination): above 12,500 ng/mL | Systemic exposure (plasma concentration) ([2]; up to 5 consecutive days of topical treatment): < 1 ng/mL | Complete Clearance on Day 45 (100% reduction in AK lesions vs Baseline), n/N (%) ([3]; Cohort 2: 2 mg/100 cm^2 QD x3 days): 0/10 | AK lesion count, median (min, max) ([3]; Day 1 (Baseline), Cohort 1: 0.5 mg/25 cm^2 QD x3 days): 5.0 (4, 5) | AK lesion count, median (min, max) ([3]; Day 1 (Baseline), Cohort 2: 2 mg/100 cm^2 QD x3 days): 11.5 (8, 16) | AK lesion count, median (min, max) ([3]; Day 1 (Baseline), Cohort 3: 0.5 mg/25 cm^2 QD x5 days): 6.0 (5, 6) | AK lesion count, median (min, max) ([3]; Day 1 (Baseline), Cohort 4: 2 mg/100 cm^2 QD x5 days): 11.0 (10, 16) | AK lesion count, median (min, max) ([3]; Day 4, Cohort 1: 0.5 mg/25 cm^2 QD x3 days): 5.0 (4, 5) | AK lesion count, median (min, max) ([3]; Day 4, Cohort 2: 2 mg/100 cm^2 QD x3 days): 9.0 (6, 16) | AK lesion count, median (min, max) ([3]; Day 10, Cohort 1: 0.5 mg/25 cm^2 QD x3 days): 5.0 (4, 5) | AK lesion count, median (min, max) ([3]; Day 10, Cohort 2: 2 mg/100 cm^2 QD x3 days): 7.0 (6, 11) | AK lesion count, median (min, max) ([3]; Day 10, Cohort 3: 0.5 mg/25 cm^2 QD x5 days): 5.0 (5, 6) | AK lesion count, median (min, max) ([3]; Day 10, Cohort 4: 2 mg/100 cm^2 QD x5 days): 10.0 (10, 10) | AK lesion count, median (min, max) ([3]; Day 17, Cohort 1: 0.5 mg/25 cm^2 QD x3 days): 4.5 (3, 5) | AK lesion count, median (min, max) ([3]; Day 17, Cohort 2: 2 mg/100 cm^2 QD x3 days): 7.0 (5, 15) | AK lesion count, median (min, max) ([3]; Day 17, Cohort 3: 0.5 mg/25 cm^2 QD x5 days): 5.0 (4, 6) | AK lesion count, median (min, max) ([3]; Day 17, Cohort 4: 2 mg/100 cm^2 QD x5 days): 10.0 (10, 11) | AK lesion count, median (min, max) ([3]; Day 31, Cohort 1: 0.5 mg/25 cm^2 QD x3 days): 3.5 (1, 5) | AK lesion count, median (min, max) ([3]; Day 31, Cohort 2: 2 mg/100 cm^2 QD x3 days): 7.0 (1, 15) | AK lesion count, median (min, max) ([3]; Day 31, Cohort 3: 0.5 mg/25 cm^2 QD x5 days): 1.0 (0, 6) | AK lesion count, median (min, max) ([3]; Day 31, Cohort 4: 2 mg/100 cm^2 QD x5 days): 6.0 (0, 11) | AK lesion count, median (min, max) ([3]; Day 45, Cohort 1: 0.5 mg/25 cm^2 QD x3 days): 2.5 (0, 4) | AK lesion count, median (min, max) ([3]; Day 45, Cohort 2: 2 mg/100 cm^2 QD x3 days): 4.0 (1, 10) | AK lesion count, median (min, max) ([3]; Day 45, Cohort 3: 0.5 mg/25 cm^2 QD x5 days): 0.5 (0, 4) | AK lesion count, median (min, max) ([3]; Day 45, Cohort 4: 2 mg/100 cm^2 QD x5 days): 4.5 (0, 12) | Change in AK lesion counts over time ([3]; all 4 cohorts): reductions in mean baseline AK lesion counts over time | Activity of 5-day versus 3-day regimen ([3]; rates of complete and partial clearance): 5-day regimen may provide better activity than the 3-day regimen | Activity compared to Picato Phase 3 studies ([4]; 5-day regimen, cross-study tabulation): may be comparable | Subjects with 100% clearance of AK lesions on day 57 ([4]; face, 35 subjects): 43% | Subjects with at least 75% reduction of AK lesions on day 57 ([4]; face, 35 subjects): 60% | Subjects with 100% clearance of AK lesions on day 57 ([4]; overall, 67 subjects): 36% | Subjects with at least 75% reduction of AK lesions on day 57 ([4]; overall, 67 subjects): 51% | Subjects with 100% clearance of AK lesions on day 57 ([4]; scalp, 32 subjects): 28% | Subjects with at least 75% reduction of AK lesions on day 57 ([4]; scalp, 32 subjects): 41% | AK lesion count, median ([4]; Day 1): 6.0 | AK lesion count, median ([4]; Day 8): 5.0 | AK lesion count, median ([4]; Day 15): 4.0 | AK lesion count, median ([4]; Day 29): 2.0 | AK lesion count, median ([4]; Day 57): 2.0 | Activity of 5-day versus 3-day regimen ([4]; Examples 1, 2a and 2b): greater activity than the 3-day regimen
